Results on 10 molecules are retold here after patent publication US20240207265A1, “TREATMENT OF CNS DISEASES WITH sGC STIMULATORS” (Tisento Therapeutics Inc., priority 2021, published 2024).

For one data set, the system named is sGC enzyme. Put plainly: cGMP GloSensor cell-based assay, 384-well format (HEK293). Further details: species or system human. To be noted: HEK293 GloSensor 40F cGMP cells, 10 μM DETA-NONOate, geometrical mean; read-out: Glo EC50. From the text: Human embryonic kidney cells (HEK293) cells expressing GloSensor™ 40F cGMP (Part No: CS182801, Promega) were used to evaluate the activity of test compounds. The luminescent biosensors (engineered luciferase) that were incorporated into these cells detect cGMP formed by the compounds stimulating the sGC enzyme and emit luminescence.
cGMP GloSensor cells were maintained in Dulbecco's Modification of Eagle's Medium (DMEM) supplemented with fetal bovine serum (FBS, 10% final) and hygromycine (200 ug/ml). The day before assay, cells were plated in DMEM with 10% FBS in a 50 μL volume at a density of 1.5×10^4 cells/well in a poly-D-lysine coated 384-well flat white-bottom plate (Corning Cat No 35661). Cells were incubated overnight at 37° C. in a humidified chamber with 5% CO2. The next day, medium was removed and cells were replaced with 40 ul/well of GloSensor™, 2 mM (Promega Cat No E1291). Cells were treated for 90 minutes at 25° C. to allow the substrate to equilibrate in the cells. Test compounds and Diethylenetriamine NONOate (DETA-NONOate) was diluted to 3 mM (20×) in serum-free CO2 independent medium and serially diluted at 4× dilutions to create 5× dose curve from which 10 ul was added to the wells (x μM concentration for test compound solution and 10 μM concentration for DETA-NONOate solution; wherein x is one of the following final concentrations: 30 μM, 7.5 μM, 1.9 μM, 469 nM, 117 nM, 29.3 nM, 7.3 nM, 1.83 nM, 0.46 nM, 0.11 nM, 0.03 nM) For the kinetics studies, luminescense was measured right away for 0.2 sec per well with Envision (Perkin Elmer). For endpoint SAR screening, data were collected after 55 min incubation at room temperature.
(§1) Concentration response data were analyzed using a 4-parameter fit (log (agonist) vs. response-variable slope). The EC50 was interpolated from the curve fit and is defined as the concentration at which the compound elicits 50% of its maximal response. When the experiment was carried out multiple times for a given compound, the geometrical mean of all experiments is reported.

The subject of another data set is sGC. Put plainly: cGMP neuronal cell-based assay (rat primary neurons). Particulars: rat primary hippocampal neurons, DETA-NO 10 μM or 30 μM, cGMP by LC-MS/MS; read-out: sGC Neuron EC50. Here is the method: Rat primary neurons were isolated from fetuses of 18-day pregnant Sprague-Dawley females. The fetuses were collected in Hanks' balanced salt solution (HBSS) and brains were rapidly removed. The cerebral hippocampi were isolated and mechanically fragmented. Further tissue digestion was performed with 0.25% (wt/vol) trypsin solution in HBSS without Ca2+ and Mg2+ for 15 min at 37° C. After trypsination, cells were washed and resuspended in neurobasal medium supplemented with 0.5 mM L-glutamine, 12.5 uM glutamic acid, 2% B-27 and 100 U/mL penicillin, and 100 μg/mL streptomycin. Cells were plated at a density of 26×10^3 or 3×10^4 or 4×10^4 cells/well in a poly-D-lysine coated 384-well flat clear-bottom plate (Corning Cat No 354662). Cells were incubated 6-7 days at 37° C. in a humidified chamber with 5% CO2. Media was removed and cells were washed 1× with HBSS containing Ca2+ and Mg2+, and replaced with 40 uL HBSS containing 0.5 mM IBMX, and incubated for 15 minutes at 37° C. 10 uL of a 5× stock of test compounds with diethylenetriamine NONOate (DETA-NO) was added. Final concentration of DETA-NO was either 10 μM or 30 μM. Cells were incubated for 20 min at 37° C. Medium was removed, 50 uL of ice-cold 10% acetic acid was added, and incubated for 60 minutes at 4° C. Following centrifugation at 4° C. for 5 minutes at 1000×g to pellet cell debris, the supernatant was aspirated to a clean plate and the samples were analyzed for cGMP content. cGMP concentrations were determined from each sample using LC-MS/MS.
as §1

Data set [1] in a line: Rat cerebrospinal fluid (CSF) pharmacokinetics. Particulars: male, Sprague-Dawley; rat CSF/unbound plasma, PO 3 mg/kg. Format: in vivo. As to the method: PK in rats was determined following oral dosing. For the oral (PO) experiments, a group of 6 male Sprague-Dawley rats with an indwelling catheter placed in the cisterna magna were used. The PO group was dosed with 3.0, or 10 mg/kg of a compound formulated as a solution in PEG400 or suspension in 0.5% Tween 80 and 0.5% Methylcellulose in water. PO doses were administered by oral gavage and delivered to the stomach using a syringe and gavage tube. Following oral dosage administration, the gavage tube was flushed with approximately 0.5 mL of water to ensure complete delivery of the full dose.
Plasma samples were collected as follows: samples of CSF and blood were collected at 1 hour, 2, and optionally at 4 hours post-dosing. CSF samples (0.05 mL) were collected through the intracisternal catheter. Blood samples (0.25 mL) were collected through tail nick sampling. These samples were kept on ice until processed for plasma. Blood samples were centrifuged at 3200 rpm for 5 minutes at approximately 5° C. within 1 hour of collection. Plasma was directly transferred to individual Eppendorf tubes (0.125 mL). Plug caps were placed on the tubes and the tubes frozen at approximately −70° C. and stored until analysis. Plasma and CSF was collected and analyzed for the presence of a compound.
The compound in question and the internal standard were extracted from plasma by precipitation and from CSF by either precipitation or dilution. Samples were analyzed using liquid chromatography (LC) with tandem mass spectrometric detection (MS/MS) using electrospray ionization. The standard curve ranged from 0.1 to 1000 ng/mL. Results of the compounds described herein in this assay are illustrated in Table G below (for a 10 mg/kg dose and/or 3 mg/kg of the compound). Compound concentrations from several animals were combined to give the geometrical mean at each specific dosage and timepoint.
Kp,uu is defined as the concentration ratio of unbound drug in CSF to unbound drug in plasma. Unbound drug in plasma (or free plasma concentration) is calculated by multiplying the total plasma concentration by the unbound fraction as determined by plasma protein binding. The CSF concentration is then divided by the free plasma concentration to determine the Kp,uu. (See e.g., Di et al., J. Med. Chem., 56, 2-12 (2013))

Some results are limits rather than exact numbers.

`Oc1nc(-c2cn3ccnc3c(Cc3cccc(F)c3)n2)ncc1F` [Compound I-1, 5-fluoro-2-(8-(3-fluorobenzyl)imidazo[1,2-a]pyrazin-6-yl)pyrimidin-4-ol]: the EC50 (as a rule, the midpoint of the concentration-response curve) with sGC enzyme fell in the range of 100 to 1000 nM. Besides, the 50% effective concentration (EC50) with sGC lay within 100 to 1000 nM. In data set [1], the Kp uu at 1 h is not above 1, the Kp uu at 2 h was in the range of 1 to 2 and the Kp uu at 4 h was not above 1. As for `Cc1ccc(Cc2nc(-c3ncc(F)c(O)n3)cn3ccnc23)cc1F` [Compound I-6, 5-Fluoro-2-(8-(3-fluoro-4-methylbenzyl)imidazo[1,2-a]pyrazin-6-yl)pyrimidin-4-ol], the half-maximal effective concentration (EC50) in the data set with sGC enzyme and in the data set on sGC was not above 100 nM throughout. As for `Oc1nc(-c2cn3ccnc3c(Cc3cc(F)cc(F)c3)n2)ncc1F` [Compound I-7, 2-(8-(3,5-Difluorobenzyl)imidazo[1,2-a]pyrazin-6-yl)-5-fluoropyrimidin-4-ol], the values for the concentration giving a half-maximal response (EC50) in the data set on sGC enzyme and in the data set with sGC were 100 to 1000 nM and not above 100 nM, respectively. The like results for `Oc1nc(-c2cn3ncnc3c(Cc3cc(F)ccc3F)n2)ncc1F` [Compound I-12, 2-(8-(2,5-Difluorobenzyl)-[1,2,4]triazolo[1,5-a]pyrazin-6-yl)-5-fluoropyrimidin-4-ol] were, in that order, 100 to 1000 nM and not above 100 nM. In the same order, the values of `Cc1c(F)cc(Cc2nc(-c3ncc(F)c(O)n3)cn3ccnc23)cc1F` [Compound I-3, 5-Fluoro-2-(8-(3,5-difluoro-4-methylbenzyl)imidazo[1,2-a]pyrazin-6-yl)pyrimidin-4-ol] are not above 100 nM and not above 100 nM. Consider `Oc1nc(-c2cn3ncnc3c(Cc3cccc(F)c3F)n2)ncc1F` [Compound I-10, 2-(8-(2,3-Difluorobenzyl)-[1,2,4]triazolo[1,5-a]pyrazin-6-yl)-5-fluoropyrimidin-4-ol], for which, in the data set with sGC enzyme, the EC50 fell in the range of 100 to 1000 nM. Turning to `Oc1nc(-c2cn3c(F)cnc3c(Cc3ccccc3F)n2)ncc1F` [Compound I-9], the values for the concentration for a half-maximal effect (EC50) in the data set on sGC enzyme and in the data set on sGC were 100 to 1000 nM and not above 100 nM, respectively. Turning to `Cc1cnc(-c2cn3ccnc3c(Cc3ccccc3F)n2)nc1O` [Compound I-8, 2-(8-(2-fluorobenzyl)imidazo[1,2-a]pyrazin-6-yl)-5-methylpyrimidin-4-ol], the half-maximal effective concentration (EC50) in the data set with sGC enzyme is more than 1000 nM. Still for that read-out and setting: to `Oc1nc(-c2cn3ncnc3c(Cc3cccc(F)c3)n2)ncc1F` [Compound I-11, 5-Fluoro-2-(8-(3-fluorobenzyl)-[1,2,4]triazolo[1,5-a]pyrazin-6-yl)pyrimidin-4-ol] belongs 100 to 1000 nM; to `Oc1nc(-c2cn3ncnc3c(Cc3cc(F)cc(F)c3)n2)ncc1F` [Compound I-13, 2-(8-(3,5-Difluorobenzyl)-[1,2,4]triazolo[1,5-a]pyrazin-6-yl)-5-fluoropyrimidin-4-ol], 100 to 1000 nM.
